Experimental findings from BindingDB's records for doi:10.7270/Q2736PBV (Broad Institute, 2009) are described below.

Where only a bound is given, the exact number is not on record here.

The target in the assay is T1, Streptokinase A (Streptococcus pyogenes serotype M1, UniProt P10520).
T1 sequence (P10520 whole entry): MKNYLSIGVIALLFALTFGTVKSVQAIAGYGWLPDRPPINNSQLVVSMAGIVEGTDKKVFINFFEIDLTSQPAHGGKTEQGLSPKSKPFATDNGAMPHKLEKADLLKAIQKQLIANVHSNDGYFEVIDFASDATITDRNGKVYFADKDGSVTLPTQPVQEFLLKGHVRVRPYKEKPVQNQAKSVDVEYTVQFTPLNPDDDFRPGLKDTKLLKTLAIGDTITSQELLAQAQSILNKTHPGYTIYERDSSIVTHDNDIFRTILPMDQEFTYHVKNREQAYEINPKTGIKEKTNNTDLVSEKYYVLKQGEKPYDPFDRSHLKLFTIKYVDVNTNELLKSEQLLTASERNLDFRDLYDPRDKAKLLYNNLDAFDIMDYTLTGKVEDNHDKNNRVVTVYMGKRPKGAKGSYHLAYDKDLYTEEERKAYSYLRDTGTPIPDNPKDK
Description: S. pyogenes streptokinase expression inhibitors, potency, dose response, plasminogen activation absorbance, OD405 (AID 1914).
By EC50 is commonly meant the concentration needed to bring the measured effect to its halfway point. Low values mean a more potent agent, high ones a less potent agent. `CCOC(=O)c1ccc(NC(=O)Cc2sc(N=NCc3c[nH]c4ccccc34)nc2O)cc1` [MLS000722052]: the EC50 was > 150 µM. Turning to `CCN(CC)c1ccc(C=NC(C#N)C(=N)C#N)cc1` (stereo unspecified) [SMR000023871], the EC50 was > 150 µM.

As for `N#CC(C(=O)CN1CCN(c2ccccc2F)CC1)c1nc(-c2ccccc2)cs1` (stereo unspecified) [(2Z)-4-[4-(2-fluorophenyl)piperazin-1-yl]-3-oxidanylidene-2-(4-phenyl-3H-1,3-thiazol-2-ylidene)butanenitrile], the half-maximal effective concentration (EC50) is > 150 µM. For the compound `CCOC(=O)C1C(=N)Oc2ccc3ccccc3c2C1c1ccc(O)cc1` (stereo unspecified) [3-amino-1-(4-hydroxyphenyl)-1H-benzo[f][1]benzopyran-2-carboxylic acid ethyl ester], a half-maximal response (EC50) required 11.5 µM. In the case of `O=C1C([N+](=O)[O-])=CC(Cl)=CC1CN=Nc1nc2ccccc2s1` (stereo unspecified) it was > 150 µM; in that of `Cc1ccc(NC(=S)N/N=C2\C(=O)Nc3ccccc32)cc1` [MLS000760038], > 150 µM. On to `Cc1ccc(-c2nn(-c3ccccc3)cc2CN=O)cc1` [N-[[3-(4-methylphenyl)-1-phenylpyrazol-4-yl]methylidene]hydroxylamine], for which the EC50 was > 150 µM.

Consider `CCC(C)N1C(=O)C(=CNNc2ccccc2)C(=O)NC1=S` (stereo unspecified), for which the EC50 was > 150 µM. In the case of `O=Nc1c(C2C(=O)Nc3cc(Br)ccc32)[nH]c2ccccc12` (stereo unspecified) [6-bromoindirubin-3-oxime] it was 44.9 µM; in that of `Oc1nc(N=NCc2cccs2)sc1Cc1ccc(Cl)c(Cl)c1` [5-[(3,4-dichlorophenyl)methyl]-2-[2-(thiophen-2-ylmethylidene)hydrazinyl]-4-thiazolone], > 150 µM. As for `Cc1cc(C)c2c(c1)C(=NNc1ccc(C(=O)O)cc1)C(O)=N2` [SMR000592331], the EC50 is > 150 µM.

Compound `CNC(=Nc1cc(Cl)ccc1Cl)Sc1cc(O)n(-c2ccc(C(=O)OC)cc2)c1O` [4-[3-[[(2,5-dichloroanilino)-methyliminomethyl]thio]-2,5-dioxo-1-pyrrolidinyl]benzoic acid methyl ester] returned an EC50 of 50 µM. Turning to `CCCCCCC1=Cc2c/c(=C3/NN=C(c4ccccc4)O3)c(=O)oc2=CC1=O` [MLS000068623], the EC50 was > 150 µM. Regarding `O=C(CSc1ccc(Cl)cc1)Nc1cc(=O)n(-c2ccccc2)[nH]1` [SMR000672521], the response was half-maximal at 9.33 µM (EC50). Regarding `CC(=NNC(=N)Sc1cc(O)n(-c2ccc(Br)cc2)c1O)c1cccs1` [[1-(4-bromophenyl)-2,5-bis(oxidanylidene)pyrrolidin-3-yl] N''-(1-thiophen-2-ylethylideneamino)carbamimidothioate], the midpoint of the response, the EC50, lay at 9.08 µM. As for `N=C(N)C1=CC(=O)/C(=C/C=c2ccc(=C(N)N)cc2)C=C1` [(4E)-4-[2-[4-[bis(azanyl)methylidene]cyclohexa-2,5-dien-1-ylidene]ethylidene]-3-oxidanylidene-cyclohexa-1,5-diene-1-carboximidamide;2-oxidanylethanesulfonic acid], the figure is 20 µM; as for `C=CCOC(=O)C1=C(C)N=C(SCC)C(C#N)C1c1ccc(Cl)cc1` (stereo unspecified) [4-(4-Chloro-phenyl)-5-cyano-6-ethylsulfanyl-2-methyl-1,4-dihydro-pyridine-3-carboxylic acid allyl ester], 8.34 µM. In the case of `Oc1nc(Nc2ccc(Cl)cc2)sc1Cc1cccc(Cl)c1Cl` [2-(4-chloroanilino)-5-(2,3-dichlorobenzyl)-2-thiazolin-4-one] it was 131 µM. As for `Cc1ccc2nc(-n3c(O)c[nH]c3=S)sc2c1`, the EC50 was > 150 µM. Regarding `COc1cccc(CN=Nc2cc(N3CCOCC3)ncn2)c1O` [(6E)-2-methoxy-6-[[N'-(6-morpholinopyrimidin-4-yl)hydrazino]methylene]cyclohexa-2,4-dien-1-one], the EC50 is > 150 µM. For `COc1cccc(CN=Nc2nc(Nc3ccccc3)nc(-n3nc(C)cc3C)n2)c1O` [(6E)-6-[[2-[4-(3,5-dimethylpyrazol-1-yl)-6-phenylazanyl-1,3,5-triazin-2-yl]hydrazinyl]methylidene]-2-methoxy-cyclohexa-2,4-dien-1-one], the EC50 is > 150 µM.
